What was measured:
dN-SARM1 protein [1] = biological target: T1, dN-SARM1 protein (Homo sapiens, UniProt Q6SZW1); experiment: In vitro biochemical assay for inhibiting SARM1 enzymatic activity (% inhibition rate), PC6 fluorescence method; conditions: 20 μM compound; 50 μM NAD, 50 μM PC6, 50 μM NMN activator
T1 construct: the N-terminal mitochondrial localization signal peptide of SARM1 was removed
T1 sequence (Q6SZW1 28-724): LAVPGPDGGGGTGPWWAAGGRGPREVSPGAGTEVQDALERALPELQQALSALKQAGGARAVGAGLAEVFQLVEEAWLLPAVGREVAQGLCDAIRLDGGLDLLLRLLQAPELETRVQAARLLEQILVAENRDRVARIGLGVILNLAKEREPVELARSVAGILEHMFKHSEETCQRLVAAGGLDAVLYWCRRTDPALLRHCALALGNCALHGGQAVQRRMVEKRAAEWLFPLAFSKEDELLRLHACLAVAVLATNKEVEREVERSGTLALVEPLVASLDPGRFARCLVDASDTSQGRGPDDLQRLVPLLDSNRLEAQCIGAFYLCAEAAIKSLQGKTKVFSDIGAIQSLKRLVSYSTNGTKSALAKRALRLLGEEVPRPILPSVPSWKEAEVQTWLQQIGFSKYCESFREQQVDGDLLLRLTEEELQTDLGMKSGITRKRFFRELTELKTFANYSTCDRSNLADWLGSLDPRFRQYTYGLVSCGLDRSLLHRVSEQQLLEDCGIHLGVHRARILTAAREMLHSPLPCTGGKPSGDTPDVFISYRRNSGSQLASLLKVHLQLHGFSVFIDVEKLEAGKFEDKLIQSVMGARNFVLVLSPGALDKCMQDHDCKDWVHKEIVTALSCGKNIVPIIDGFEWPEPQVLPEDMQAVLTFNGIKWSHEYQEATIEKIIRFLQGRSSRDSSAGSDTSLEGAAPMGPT
Description: The compounds were subjected to PC6 fluorescence method measurement [Chinese Patent 202010528147.3] using the dN-SARM1 protein obtained through “(4) Protein extraction” in “Expression and purification of SARM1 protein” in the above biological activity example 1.
First, 0.05 μg/ml dN-SARM1 and 20 μM compound were incubated in 50 mM Tris-HCl (pH 7.5) solution for 10 min, and then added with 50 μM NAD and 50 μM PC6 as substrate and 50 μM NMN as activator for 30 minutes of reaction at room temperature. The concentration of each component was the final concentration in the reaction system.
During the reaction, PC6 fluorescence spectrum dynamics were detected by a microplate reader, wherein the excitation wavelength and emission wavelength for detection were 390 nm and 520 nm, respectively. Finally, the reaction rate was used to express the activity of the protein. The higher the reaction rate, the stronger the activity of the protein and the lower the inhibitory efficiency of the compound.

dN-SARM1 protein [2] = biological target: T1, dN-SARM1 protein; experiment: In vitro biochemical assay for inhibiting SARM1 enzymatic activity (IC50), PC6 fluorescence method; conditions: 50 μM NAD, 50 μM PC6, 50 μM NMN activator
How it was run: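 Activity read as the rate of PC6 fluorescence change (390 nm excitation, 520 nm emission) over a 30 min room-temperature reaction containing final 50 μM each of NAD, PC6 and NMN activator. Enzyme, 0.05 μg/ml dN-SARM1 in 50 mM Tris-HCl pH 7.5, first incubated 10 min with compound diluted serially from 200 μM; IC50 calculated.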

[3] = biological target: T2, SARM1 protein in iSARM1 (HEK293) cells (Homo sapiens, UniProt Q6SZW1); experiment: Inhibitory activity in inducible SARM1 overexpressing cell line, intracellular cADPR level; format: cell-based; conditions: activator CZ-48 100 μM, cADPR content
T2 construct: The full-length SARM1 was synthesized into the pUC57 plasmid by WZ Biosciences Inc., and PCR was performed using pUC57-SARM1 as a DNA template
T2 sequence (Q6SZW1 28-724): T1 sequence (Q6SZW1 28-724)
How it was run: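 Inducible SARM1-overexpressing HEK293 cells preincubated 1.5 h with inhibitor (50 μM final), then activated with 100 μM CZ-48 for 16 h. Intracellular cADPR extracted with perchloric acid, NAD+ removed by NADase, and quantified by cyclase-coupled resazurin cycling assay (Ex/Em 544/599, 30 min kinetics) against cADPR standards; inhibition rate and IC50 calculated.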

Row | Compound | inhibition at 20 µM (dN-SARM1 protein [1]) | IC50 (dN-SARM1 protein [2]) | EC50 [3]
1 | CNc1ccc2ncc(Br)n2n1 [Compound 1, 3-bromo-N-methylimidazo[1,2-b]pyridazin-6-amine] | > 90% | – | –
2 | Nc1cn2c(-c3ccccc3)cnc2cc1Cl [Compound 19] | > 90% | – | –
3 | CC(C)(C)OC(=O)Nc1ccc2ncc(-c3ccccc3)n2n1 [Compound 22] | 50 to 89% | – | –
4 | CCOC(=O)c1ccc2ncc(-c3ccccc3)n2c1 [Compound 24] | > 90% | 1000 to 10000 nM | –
5 | COc1ccn2c(-c3ccccc3)cnc2c1 [Compound 26] | > 90% | < 1000 nM | –
6 | COc1cccn2c(-c3ccccc3)cnc12 [Compound 27] | 50 to 89% | 1000 to 10000 nM | –
7 | Ic1cccc2ncc(I)n12 [Compound 28] | 50 to 89% | – | –
8 | CN1CCN(c2ccc3nccn3c2)CC1 [Compound 35] | 50 to 89% | – | –
9 | CN1CCN(c2ccc3ncc(-c4ccccc4)n3c2)CC1 [Compound 37] | 50 to 89% | 1000 to 10000 nM | –
10 | CN(C(=O)OC(C)(C)C)c1ccc2ncc(-c3ccnc(N)c3)n2c1 [Compound 41] | > 90% | 1000 to 10000 nM | –
11 | CC(C)(C)OC(=O)Nc1ccc2ncc(-c3cccc(N)c3)n2c1 [Compound 46] | > 90% | 1000 to 10000 nM | –
12 | CN1CCC(C(=O)Nc2cccc(-c3cnc4ccc(N(C)C(=O)OC(C)(C)C)cn34)c2)CC1 [Compound 48] | 50 to 89% | – | –
13 | COCCOCC(=O)Nc1cccc(-c2cnc3ccc(C)cn23)c1 [Compound 53] | > 90% | 1000 to 10000 nM | –
14 | Cc1ccc2ncc(-c3cccc(NC(=O)C4CCOCC4)c3)n2c1 [Compound 54] | > 90% | < 1000 nM | –
15 | CC(C)(C)Oc1ccc2ncc(-c3cccc(NC(=O)C4CCOCC4)c3)n2c1 [Compound 55] | > 90% | 1000 to 10000 nM | –
16 | COCCOCC(=O)Nc1cccc(-c2cnc3ccc(N4CCOCC4)cn23)c1 [Compound 56] | > 90% | < 1000 nM | –
17 | O=C(Nc1cccc(-c2cnc3ccc(N4CCOCC4)cn23)c1)C1CCOCC1 [Compound 57] | > 90% | < 1000 nM | –
18 | COCCOCC(=O)Nc1cccc(-c2cnc3ccc(NC(=O)OC(C)(C)C)cn23)c1 [Compound 58, tert-butyl (3-(3-(2-(2-methoxyethoxy)acetamido)phenyl)imidazo[1,2-a]pyridin-6-yl)carbamate] | 50 to 89% | < 1000 nM | –

Row | Compound | inhibition at 20 µM (dN-SARM1 protein [1]) | IC50 (dN-SARM1 protein [2]) | EC50 [3]
19 | CNc1ccc2ncc(-c3cccc(NC(=O)COCCOC)c3)n2c1 [Compound 77] | > 90% | 1000 to 10000 nM | –
20 | CN(C)c1ccc2ncc(-c3ccccc3)n2n1 [Compound 94, N,N-dimethyl-3-phenylimidazo[1,2-b]pyridazin-6-amine] | > 90% | < 1000 nM | –
21 | CN(C(=O)OC(C)(C)C)c1ccc2ncc(-c3ccccc3)n2n1 [Compound 95, tert-butyl methyl(3-phenylimidazo[1,2-b]pyridazin-6-yl) carbamate] | 50 to 89% | – | –
22 | COCCOCCNS(=O)(=O)c1cccc(-c2cnc3ccc(N(C)C(=O)OC(C)(C)C)cn23)c1 [Compound 108, tert-butyl (3-(3-(N-(2-(2-methoxyethoxy)ethyl)sulfamoyl)phenyl)imidazo[1,2-a]pyridin-6-yl)(methyl)carbamate] | 50 to 89% | 1000 to 10000 nM | –
23 | CNc1ccc2ncc(-c3cccc(S(=O)(=O)NCCOCCOC)c3)n2c1 [Compound 109, N-(2-(2-methoxyethoxy)ethyl)-3-(6-(methylamino)imidazo[1,2-a]pyridin-3-yl)benzenesulfonamide] | 50 to 89% | – | –
24 | CNc1ccc2ncc(-c3cccc(S(=O)(=O)NC4CCOCC4)c3)n2c1 [Compound 110, 3-(6-(methylamino)imidazo[1,2-a]pyridin-3-yl)-N-(tetrahydro-2H-pyran-4-yl)benzenesulfonamide] | > 90% | < 1000 nM | –
25 | COC(=O)c1csc(-c2cnc3ccc(NC(=O)OC(C)(C)C)cn23)c1 [Compound 124, methyl 5-(6-((tert-butoxycarbonyl)amino)imidazo[1,2-a]pyridin-3-yl)thiophene-3-carboxylate] | > 90% | 1000 to 10000 nM | –
26 | CC(C)(C)OC(=O)Nc1ccc2ncc(-c3cc(C(=O)NC4CCOCC4)cs3)n2c1 [Compound 125, tert-butyl (3-(4-((tetrahydro-2H-pyran-4-yl)carbamoyl)thiophen-2-yl)imidazo[1,2-a]pyridin-6-yl) carbamate] | > 90% | 1000 to 10000 nM | –
27 | CCOC(=O)c1ccc(-c2cnc3ccc(NC(=O)OC(C)(C)C)cn23)s1 [Compound 126, ethyl 5-(6-((tert-butoxycarbonyl)amino)imidazo[1,2-a]pyridin-3-yl)thiophen-2-carboxylate] | > 90% | – | –
28 | CC(C)(C)OC(=O)Nc1ccc2ncc(-c3ccc(C(=O)NC4CCOCC4)s3)n2c1 [Compound 127, tert-butyl (3-(5-((tetrahydro-2H-pyran-4-yl)carbamoyl)thiophen-2-yl)imidazo[1,2-a]pyridin-6-yl)carbamate] | 50 to 89% | – | –
29 | COCCOCC(=O)Nc1cccc(-c2cnc3ccc(N)cn23)c1 [Compound 128, N-(3-(6-aminoimidazo[1,2-a]pyridin-3-yl)phenyl)-2-(2-methoxyethoxy)acetamide] | > 90% | 1000 to 10000 nM | –
30 | COCCOCCNC(=O)c1cccc(-c2cnc3ccc(N(C)C(=O)OC(C)(C)C)cn23)c1 [Compound 133, tert-butyl (3-(3-((2-(2-methoxyethoxy)ethyl)carbamoyl)phenyl)imidazo[1,2-a]pyridin-6-yl)(methyl)carbamate] | 50 to 89% | – | –
31 | CN(C(=O)OC(C)(C)C)c1ccc2ncc(-c3cccc(C(=O)NC4CCOCC4)c3)n2c1 [Compound 135] | 50 to 89% | – | –
32 | CC(C)(C)OC(=O)Nc1ccc2ncc(C(=O)NCCOCCOCCNC(=O)c3cnc4ccc(NC(=O)OC(C)(C)C)cn34)n2c1 [Compound 139] | 50 to 89% | – | –
33 | CN(C(=O)C(F)(F)F)c1ccc2ncc(NC(=O)COCCOCCOCC(=O)Nc3cnc4ccc(N(C)C(=O)C(F)(F)F)cn34)n2c1 [Compound 142, N,N′-(3,3′-((2,2′-((oxybis(ethane-2,1-diyl))bis(oxy))bis (acetyl))bis(azadialkyl))bis(imidazo[1,2-a]pyridin-6,3-diyl))bis(2,2,2-trifluoro-N-methylacetamide)] | > 90% | – | –
34 | CN(C(=O)OC(C)(C)C)c1ccc2ncc(-c3cccc(NC(=O)CN4CCOCC4)c3)n2c1 [Compound 147] | > 90% | – | –
35 | CN(C(=O)OC(C)(C)C)c1ccc2ncc(-c3cccc(NC(=O)CN4CCC(O)C4)c3)n2c1 (centres unmarked) [Compound 148] | > 90% | – | –
36 | CN(C(=O)C1CC1)c1ccc2ncc(-c3cccc(NC(=O)C4CCOCC4)c3)n2c1 [Compound 307] | – | < 1000 nM | 1 to 10 µM
